Reference: patent publication US6632829B2, “Sulfonamides and derivatives thereof that modulate the activity of endothelin” (Texas Biotechnology Corp., priority 1996, dated 2003)
Where two headings read alike, the source gives them in different places.

What was measured:
human ETA receptors = target: T1, human ETA receptors (Homo sapiens, UniProt P25101); test: Endothelin binding inhibition, Binding Test #1: competition with 125I-ET-1 for ETA receptors on TE 671 cell membranes; details: incubation at 24° C. (values marked †)
T1 construct: endogenous in cells; host or cells: TE 671 cells (ATCC HTB 139), membrane preparation
T1 sequence (P25101 21-427): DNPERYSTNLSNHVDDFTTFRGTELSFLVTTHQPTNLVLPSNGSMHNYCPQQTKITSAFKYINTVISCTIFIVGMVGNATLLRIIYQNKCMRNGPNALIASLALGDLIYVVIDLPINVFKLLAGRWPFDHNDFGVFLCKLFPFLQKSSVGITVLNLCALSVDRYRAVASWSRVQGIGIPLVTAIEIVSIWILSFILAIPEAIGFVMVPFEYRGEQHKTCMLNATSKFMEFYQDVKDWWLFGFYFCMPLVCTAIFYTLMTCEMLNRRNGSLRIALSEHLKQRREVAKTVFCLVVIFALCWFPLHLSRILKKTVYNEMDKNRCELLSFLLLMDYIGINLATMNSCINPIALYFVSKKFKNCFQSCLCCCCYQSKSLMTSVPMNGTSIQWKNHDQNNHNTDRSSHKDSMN

human ETB receptor = target: T2, human ETB receptor (Homo sapiens, UniProt P24530); test: Endothelin binding inhibition, Binding Test #2: competition with 125I-ET-1 for ETB receptors on transfected COS7 cell membranes; details: incubation at 24° C. (values marked †)
T2 construct: expressed in transfected cells; host or cells: COS7 cells
T2 sequence (P24530 27-442): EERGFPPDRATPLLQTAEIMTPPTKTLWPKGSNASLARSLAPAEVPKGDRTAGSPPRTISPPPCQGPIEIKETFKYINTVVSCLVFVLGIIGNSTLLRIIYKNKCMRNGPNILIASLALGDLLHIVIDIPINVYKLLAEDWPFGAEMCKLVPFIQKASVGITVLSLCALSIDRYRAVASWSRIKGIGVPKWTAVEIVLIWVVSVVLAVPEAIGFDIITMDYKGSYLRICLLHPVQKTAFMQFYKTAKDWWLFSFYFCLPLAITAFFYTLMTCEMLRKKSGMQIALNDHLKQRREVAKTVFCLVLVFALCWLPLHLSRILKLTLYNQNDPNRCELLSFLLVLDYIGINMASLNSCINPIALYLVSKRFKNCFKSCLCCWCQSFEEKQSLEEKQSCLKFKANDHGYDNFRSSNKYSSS
Method in brief: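 Membranes from COS7 cells transfected with human ETB receptor, prepared in HEPES pH 7.4 with aprotinin, MnCl2/DNase treatment at 37° C for 30 min. Test compounds compete with 125I-labeled ET-1 for receptor binding; membrane used at 1 μg/50 μL binding buffer.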

[1] = Oral half-life and peak plasma levels; assay type: in vivo; details: for POt½ in Rat: oral; for Peak Plasma Levels: rat, in vivo
Excerpt: As used herein, bioavailability refers to the rate and extent of absorption. Methods for determining bioavailability are well known to those of skill in the art. For example, bioavailability of any of the compounds described herein can be determined empirically by administration of the compound to an animal, followed by taking blood samples over time and measuring the blood concentration of the compound. In vivo half life (t1/2) is defined as the time it takes for the concentration of the compound in the blood to be reduced by one-half. Estimations of the area under the curve for intravenous administration can be used to estimate the area under the curve for oral administration, ylelding bioavailability data. See, e.g., Milo Gibal (1991) Biopharmaceutics and Pharmacology, 4th edition (Lea and Sediger).
Table 2 lists oral half-life, bioavailability, and in vivo activity of selected exemplary compounds. The in vivo activity was measured in a pulmonary hypertension model and is a measure of the activity of the compounds at selected dosages.

Papp = assay type: in vitro ADME; details: not told
[2] = tested on: Pulmonary Hypertension model; test: Pulmonary Hypertension model; assay type: in vivo, rat; parameters: key: ++: effective at 5 mg/kg; −: no effect at 5 mg/kg; +: effective at 15 mg/kg
Experimental: As used herein, efficacy refers to the maximal effect that can be produced by a compound. Efficacy can be determined by methods known to those of skill in the art. For example, it can be determined by the properties of the compound and its receptor-effector system and is reflected in the plateau of the concentration-effect curve. In vivo efficacy refers to efficacy which is determined in an animal model. For example, in vivo efficacy of the compounds described herein can be determined by hypoxia-induced pulmonary hypertension in rat. See, e.g., DiCarlo et al. (1995) Am. J. Physiol. 269:[…]-[…]. Table 2 lists oral half-life, bioavailability, and in vivo activity of selected exemplary compounds. The in vivo activity was measured in a pulmonary hypertension model and is a measure of the activity of the compounds at selected dosages.

ETA receptor = details: cited from earlier work
ETB receptors = details: at concentrations up to 100 μM; cited from earlier work
isolated vascular strips = details: contractile agent; cited from earlier work

With `Cc1cc(C)c(NC(=O)c2sccc2S(=O)(=O)Nc2onc(C)c2C)c(C)c1CC#N` [N-(3,4-dimethyl-5-isoxazolyl)-2-(3-cyanomethyl-2,4,6-trimethylphenylaminocarbonyl)thiophene-3-sulfonamide] the IC50 (human ETA receptors) was 1.56 nM, the IC50 (human ETB receptor) was 22800 nM and the “POt½ in Rat” value [1] was 1.8 h. The “Peak Plasma Levels” value [1] was 10.9 µg/mL.
`CC(=O)OCc1c(C)cc(C)c(NC(=O)c2sccc2S(=O)(=O)Nc2onc(C)c2Cl)c1C` [N-(4-chloro-3-methyl-5-isoxazolyl)-2-(3-acetoxymethyl-2,4,6-trimethylphenylaminocarbonyl)thiophene-3-sulfonamide] showed an IC50 (human ETA receptors) of 0.86 nM, an IC50 (human ETB receptor) of 730000 nM and a Papp (Papp) of 1.46 ×10⁻⁶ cm/s.
Work on `Cc1cc(C)c(NC(=O)c2sccc2S(=O)(=O)Nc2onc(C)c2Cl)c(C)c1CC(=O)O` [N-(4-chloro-3-methyl-5-isoxazolyl)-2-(3-carboxymethyl-2,4,6-trimethylphenylaminocarbonyl)thiophene-3-sulfonamide] yielded an IC50 (human ETA receptors) of 1.77 nM, an IC50 (human ETB receptor) of 106000 nM and a Papp (Papp) of 1.1 ×10⁻⁶ cm/s.
With `Cc1cc(C)c(NC(=O)c2sccc2S(=O)(=O)Nc2onc(C)c2Cl)c(C)c1C#N` [N-(4-chloro-3-methyl-5-isoxazolyl)-2-(3-cyano-2,4,6-trimethylphenylaminocarbonyl)thiophene-3-sulfonamide] the IC50 (human ETA receptors) was 1.52 nM, the IC50 (human ETB receptor) was 57200 nM and the “POt½ in Rat” value [1] was 3.9 h. The “Peak Plasma Levels” value [1] was 20 µg/mL and the “in vivo Efficacy” value [2] was “++”.
Work on `Cc1cc(C)c(NC(=O)c2sccc2S(=O)(=O)Nc2onc(C)c2Cl)c(C)c1CC#N` [N-(4-chloro-3-methyl-5-isoxazolyl)-2-(3-cyanomethyl-2,4,6-trimethylphenylaminocarbonyl)thiophene-3-sulfonamide] yielded an IC50 (human ETA receptors) of 1.18 nM, an IC50 (human ETB receptor) of 38800 nM and a Papp (Papp) of 1.78 ×10⁻⁶ cm/s. For the same compound, the “POt½ in Rat” value [1] was 3.4 h, the “Peak Plasma Levels” value [1] was 40.2 µg/mL and the “in vivo Efficacy” value [2] was “++”.
`Cc1cc(C)c(NC(=O)c2sccc2S(=O)(=O)Nc2onc(C)c2Cl)c(C)c1CO` [N-(4-chloro-3-methyl-5-isoxazolyl)-2-(3-hydroxymethyl-2,4,6-trimethylphenylaminocarbonyl)thiophene-3-sulfonamide] gave an IC50 (human ETA receptors) of 0.67 nM, an IC50 (human ETB receptor) of 74200 nM and a Papp (Papp) of 1.56 ×10⁻⁶ cm/s. For the same compound, the “POt½ in Rat” value [1] was 1.5 h and the “Peak Plasma Levels” value [1] was 3 µg/mL.
For `Cc1cc(C)c(NS(C)(=O)=O)c(C)c1NC(=O)c1sccc1S(=O)(=O)Nc1onc(C)c1Cl` [N-(4-chloro-3-methyl-5-isoxazolyl)-2-(3-methanesulfonylamino-2,4,6-trimethylphenylaminocarbonyl)thiophene-3-sulfonamide], the IC50 (human ETA receptors) was 1.62 nM, the IC50 (human ETB receptor) was 67600 nM and the “POt½ in Rat” value [1] was 5.9 h. For the same compound, the “Peak Plasma Levels” value [1] was 2.6 µg/mL.
Work on `COC(=O)Cc1c(C)cc(C)c(NC(=O)c2sccc2S(=O)(=O)Nc2onc(C)c2Cl)c1C` [N-(4-chloro-3-methyl-5-isoxazolyl)-2-(3-methoxycarbonylmethyl-2,4,6-trimethylphenylaminocarbonyl)thiophene-3-sulfonamide] yielded an IC50 (human ETA receptors) of 1 nM, an IC50 (human ETB receptor) of 114000 nM and a Papp (Papp) of 1.69 ×10⁻⁶ cm/s.
In the case of `Cc1cc(C)c(S(N)(=O)=O)c(C)c1NC(=O)c1sccc1S(=O)(=O)Nc1onc(C)c1Cl` [N-(4-chloro-3-methyl-5-isoxazolyl)-2-(3-sulfamoyl-2,4,6-trimethylphenylaminocarbonyl)thiophene-3-sulfonamide], the IC50 (human ETA receptors) is reported as 0.92 nM, the IC50 (human ETB receptor) is reported as 25500 nM and the “POt½ in Rat” value [1] is reported as 3.4 h. The “Peak Plasma Levels” value [1] was 2.8 µg/mL.
Compound `Cc1noc(NS(=O)(=O)c2ccsc2C(=O)Nc2c(C)c(C)c(C)c(C)c2C)c1Cl` [N-(4-chloro-3-methyl-5-isoxazolyl)-2-(pentamethylphenylaminocarbonyl)thiophene-3-sulfonamide] has an IC50 (human ETA receptors) of 29.9 nM, an IC50 (human ETB receptor) of 31000 nM and a melting point of 196 to 198 °C.
For `Cc1cc2c(cc1CC(=O)c1sccc1S(=O)(=O)Nc1onc(C)c1Cl)OCO2` [N-(4-chloro-3-methyl-5-isoxazolyl)-2-[2-methyl-4,5-(methylenedioxy)phenylacetyl]thiophene-3-sulfonamide], the IC50 (human ETA receptors) was 14.6 nM, the IC50 (human ETB receptor) was 52800 nM and the Papp (Papp) was 2.32 ×10⁻⁶ cm/s. For the same compound, the “POt½ in Rat” value [1] was 4.1 h, the “Peak Plasma Levels” value [1] was 173 µg/mL and the “in vivo Efficacy” value [2] was “++”.
`COc1cc(C#N)c(NC(=O)c2sccc2S(=O)(=O)Nc2onc(C)c2Cl)c(OC)c1OC` [N-(4-chloro-3-methyl-5-isoxazolyl)-2-[(2,3,4-trimethoxy-6-cyano)phenylaminocarbonyl]thiophene-3-sulfonamide] gave an IC50 (human ETA receptors) of 0.24 nM, an IC50 (human ETB receptor) of 7000 nM and a Papp (Papp) of 0.58 ×10⁻⁶ cm/s.
In the case of `Cc1cc(C)c(NC(=O)c2sccc2S(=O)(=O)Nc2noc(C)c2Cl)c(C)c1CC#N` [N-(4-chloro-5-methyl-3-isoxazolyl)-2-(3-cyanomethyl-2,4,6-trimethylphenylaminocarbonyl)thiophene-3-sulfonamide], the IC50 (human ETA receptors) is reported as 0.88 nM, the IC50 (human ETB receptor) is reported as 7540 nM and the “POt½ in Rat” value [1] is reported as 25.6 h. The “Peak Plasma Levels” value [1] was 13 µg/mL and the “in vivo Efficacy” value [2] was “−”.
For “cyclo(D-Glu-L-Ala-allo-D-Ile-L-Leu-D-Trp) [BE-18257B]”, the IC50 (ETA receptor; aortic smooth muscle) is listed as 1400 nM, the IC50 (ETA receptor; cultured aortic smooth muscle cells) is listed as 500 nM and the IC50 (ETA receptor; ventricle membranes) is listed as 800 nM. For the same compound, the inhibition of binding (ETB receptors) was “fails to inhibit binding”.
For endothelin-1, the EC50 (isolated vascular strips) is given as 0.4 nM.
